For orientation: melting point means the temperature of the solid-liquid transition.

Melting point data for 67 molecules are collected here from a melting point compilation (Tetko et al.; mined from patent text by program, amines drawn as free bases though some values may be those of a salt).

Molecule `COc1cc(C(O)c2ccnn2C)c(Cl)c(Cl)c1OC` (configuration not stated) gave a melting point of 149 to 154 °C.

Molecule `N#Cc1ccc2ccc(=O)oc2c1` had a melting point of 217 to 225 °C.

With `CC(Oc1ccnc2cc(Cl)ccc12)c1ccccc1F` (configuration not stated), the melting point was in the range of 53 to 54 °C.

In the case of `Cn1nc(N)nc1NCCCOc1cccc2c(N3CCOCC3)nccc12`, the melting point was in the range of 178 to 180 °C.

With `CCOC(=O)CC(=O)c1cc(F)c(F)c(Br)c1Cl`, the melting point was 47 to 51 °C.

For `Cc1ccc(C(=O)NC(CC(C)C)C(=O)O)c(SSc2cc(C)ccc2C(=O)NC(CC(C)C)C(=O)O)c1` (configuration not stated), the melting point was 216 to 218 °C.

In the case of `CCOC(=O)CCCCCc1c(O)c2cccnc2n(-c2ccccc2)c1=O`, the melting point lay in the range of 167 to 168 °C.

As for `Cc1c(C(=O)Nc2ccc(N3CCC(N4CCOCC4)CC3)c(C#N)c2)cnn1-c1cccc(Cl)c1`, the melting point came out at 210 °C.

Molecule `Oc1ccccc1CCCC1CCNCC1` registered a melting point of 152 °C.

For `Cc1ccc(C2CCN(CCc3c(C)[nH]c4ccccc34)CC2)cc1`, the melting point was in the range of 192 to 194 °C.

The molecule `Nc1nc(Cl)cc(NCC2(CO)CC(O)C2)n1` (configuration not stated) displayed a melting point of 136 to 139 °C.

Turning to `Fc1ccc(Cn2c(SC3CCNCC3)nc3cncnc32)cc1`, the melting point was 114 °C.

`COC(=O)C1=CC(=O)CCC1c1ccccc1OC` (racemic) gave a melting point of 76 °C.

`Cn1ncc(C(=O)O)c1OCc1ccccc1` came in with a melting point of 117 to 122 °C.

The molecule `COc1ccc2c(C3NCCc4ccccc43)c(O)ccc2c1` (configuration not stated) gave a melting point of 148 to 151 °C.

`CCCOCCOc1ccc(Oc2ccc3c(c2)C=C(C(=O)O)CCS3(=O)=O)cc1OCC` registered a melting point of 116 to 118 °C.

The molecule `COc1cc(OC)nc(NC(=O)NS(=O)(=O)c2ccccc2CO)n1` yielded a melting point of 149 to 150 °C.

Turning to `CC(=O)c1ccc(NC(=O)Nc2ccc(S(N)(=O)=O)cc2)cc1`, the melting point lay in the range of 258 to 260 °C.

Turning to `CC(C)c1ccc(C(Cl)=NOS(C)(=O)=O)cc1`, the melting point lay in the range of 79.5 to 82 °C.

Consider `Cc1cc(Oc2c(F)cc(C(F)(F)F)cc2Cl)n[nH]1`, for which the melting point fell in the range of 116 to 117 °C.

For `CC(=O)N(O)Cc1ccc(OCCN(C)c2nc3ccccc3o2)cc1`, the melting point lay in the range of 135 to 136 °C.

For `Brc1ccc2c(c1)/C(=C\CN1CCCC1)c1ccccc1CO2`, the melting point fell in the range of 108 to 109 °C.

`OCc1cnoc1-c1ccc(F)cc1F` displayed a melting point of 60 to 61 °C.

With `COC(=O)CCNC1(C)CCN(c2ncc3ncnc(Nc4ccc(F)c(Cl)c4)c3n2)CC1`, the melting point was 134 to 135 °C.

Molecule `COc1cc(COc2nn(-c3ccccc3)cc2CC(=O)O)ccc1OCc1nc(-c2ccccc2)oc1C` registered a melting point of 147 to 148 °C.

Molecule `Cc1ccc(C(=O)Nc2ccccc2C#N)c([N+](=O)[O-])c1` gave a melting point of 230 to 232 °C.

As to `COc1ccc(-c2c(Br)c(CN3C(=O)CCC3=O)nc3sc4c(c23)CCN(Cc2ccccc2)C4)cc1`, the melting point lay in the range of 255 to 256 °C.

`O=C(c1ccccc1)c1nsc(N2CCN(c3ccccn3)CC2)n1` returned a melting point of 110 to 111 °C.

Turning to `NC(=O)c1cc2c(Sc3ccc(Cl)cc3)cncc2s1`, the melting point was 239 to 241 °C.

For `COc1cc(Nc2nnc(Cc3ccncc3)c3ccccc23)cc(OC)c1OC`, the melting point lay in the range of 110 to 111 °C.

The molecule `CC(Br)=C(c1ccccc1)c1ccccc1` showed a melting point of 46 to 47 °C.

`Cc1c(C)c(N2CCN(Cc3ccccc3)CC2)c(C)c2c1OC(C)(C)C2c1ccc(F)nc1` (configuration not stated) returned a melting point of 76 to 79 °C.

Turning to `COc1cc2c(cc1O)CCN(Cc1cccc(OC(C)=O)c1)C2`, the melting point is 120 to 122 °C.

For the molecule `CN(C)C1(c2ccc(F)cc2)CCC(=O)CC1`, the melting point fell in the range of 128 to 133 °C.

`c1ccc(COc2cncc(N3CCNCC3)n2)cc1` came in with a melting point of 155 to 156 °C.

`CCCCCCCCOc1ccc(C=[N+]([O-])C(C)(C)C)c(F)c1` returned a melting point of 35.6 °C.

Turning to `C=Cn1nc(-c2cc(C(C)(C)C)c(O)c(C(C)(C)C)c2)c2ccc(C)nc21`, the melting point was in the range of 136 to 137 °C.

In turn, `O=C(c1ccc([N+](=O)[O-])c(OCC2CO2)c1)N1CCOCC1` (configuration not stated) came in with a melting point of 156 to 158 °C.

For `CCCCCCCCCCCCCCCCSCC(CNS(=O)(=O)CCCI)NC(=O)OCCCC` (configuration not stated), the melting point was in the range of 82 to 83 °C.

For the molecule `CC(C)(C)c1cc(Cl)n2ncnc2n1`, the melting point lay within 285 to 286 °C.

With `CCOC(=O)C1CN(c2ccc(OC)cc2)CC1=O` (configuration not stated), the melting point is 58 to 60 °C.

The molecule `CCOC(=O)c1c(C)cc2cnc(Cc3ccccc3)nc2c1C` showed a melting point of 77 to 79 °C.

In the case of `CC(=O)C(C)(O)C1(C)OC(C)=CC1=O` (configuration not stated), the melting point lay in the range of 95 to 96 °C.

Regarding `COC(=O)[C@@H]1O[C@H]1c1ccc(OC)cc1`, the melting point lay in the range of 86 to 87 °C.

`CS(=O)(=O)c1ccc(-n2cncc2-c2ccccc2F)cc1`: the melting point was 188 to 189 °C.

As for `C#CC1(O)CCc2c(OC)ccc(OC)c2C1` (configuration not stated), the melting point is 103 to 105 °C.

In turn, `COc1ccc(S(=O)(=O)n2c(CCCC(=O)O)cc3cc(Cl)ccc32)cc1` registered a melting point of 138 to 142 °C.

Molecule `C=C(C)COc1ccc(C(=O)C=Cc2ccc(Br)cc2)c(O)c1` showed a melting point of 121 to 122 °C.

`Cn1nc(-c2ccccc2O)oc1=O` displayed a melting point of 160 to 162 °C.

For the molecule `Cc1cc(C)nc(N(C=O)c2ccccc2)n1`, the melting point lay in the range of 134 to 135 °C.

`O=C1CCC(N2Cc3c(CNC(=O)NC4CCCCC4)cccc3C2=O)C(=O)N1` (configuration not stated) displayed a melting point of 309 to 311 °C.

In the case of `CN(O)C(=O)C=Cc1ccc2ccccc2c1`, the melting point lay within 138 to 140 °C.

With `O=C(NC1(C(=O)O)CCOCC1)OCc1ccccc1`, the melting point lay in the range of 110 to 115 °C.

Regarding `COc1cccc2c1nc(C(F)F)n2-c1nc(N2CCNCC2)nc(N2CC3CCC(C2)O3)n1`, the melting point is 221 to 223 °C.

`COC1(c2cc(O)cc(F)c2)CCOC1` (configuration not stated) registered a melting point of 136 to 137 °C.

As to `CC1Cc2c(c3cccnc3n(-c3cccc(C(F)(F)F)c3)c2=O)O1` (configuration not stated), the melting point was in the range of 205 to 207 °C.

With `CCC(CC)Oc1nc(C)nc(Nc2c(C)cc(C)cc2C)c1C(=O)O`, the melting point was in the range of 118 to 120 °C.

In turn, `COc1ccc(C#Cc2ccc(OC3CN4CCC3CC4)nn2)cc1` (configuration not stated) returned a melting point of 163 to 165 °C.

The molecule `CCCCN(CCCC)C(=O)NCCc1ccc(-c2csc(N)n2)cc1` displayed a melting point of 42 to 43 °C.

Molecule `CCCCCn1c(=O)c2cc(C(=O)OCC)cn2c2ccccc21` displayed a melting point of 151 to 152 °C.

Take `CCP(=O)(O)c1cc(Oc2ccc(C(F)(F)F)cc2Cl)ccc1[N+](=O)[O-]`: the melting point was determined as 99 °C.

In turn, `CN(C)C=Nc1nc(=O)n(C(=O)OCC(C)(C)C)cc1F` showed a melting point of 162 to 164 °C.

In the case of `CC(C)(CCCCCCCCCCC(C)(C)CCC(=O)O)CCC(=O)O`, the melting point is 71 to 72 °C.

Turning to `COc1ccc(S(=O)(=O)O)cc1OC(=O)c1ccccc1`, the melting point lay in the range of 139 to 140 °C.

`CSc1cc(C)nc(SC)c1NC(=O)CCCCCSc1nc2ccccc2s1` displayed a melting point of 123 to 125 °C.

`CCOC(=O)Cc1c(C)n(Cc2ccccc2)c2ccc(O)cc12` returned a melting point of 122 to 125 °C.

In the case of `CC(=O)n1cnc2c(CBr)cccc21`, the melting point lay within 109 to 112 °C.
